{"source": "patent US20090029856A1", "about": "“Hinokitiol As A Plant Pesticide” (priority 2007, published 2009)", "key": {"Colletotrichum acutatum": {"system": "Colletotrichum acutatum", "assay": "Spiral gradient dilution method, inhibition of mycelial growth", "format": "cell-based", "details": "PDA, 20° C., hinokitiol in acetone", "method": "(§1) In this method, a potato dextrose agar (PDA) medium is plated with the test solution by means of a spiral plater, which applies the compound in a 2.5-log dilution in a continuous radial concentration gradient. Fungal inoculum in two replicates is then placed along radial lines across the gradient. […] EC50 values were calculated based on these measurements. The fungi evaluated were members of the following families Anamorphic Phyllachoraceae (Colletotrichum acutatum), Anamorphic Sclerotiniaceae (Botrytis cinerea), Mitosporic fungi (Verticillium dahlias; Microphomina sp.), and Oomycota (Phytophtora capsici). Hinokitiol (5 mg/mL) was dissolved in acetone, and acetone alone was also used as a control to check for non-specific inhibition."}, "Microphomina sp.": {"system": "Microphomina sp.", "assay": "Spiral gradient dilution method, inhibition of mycelial growth", "format": "cell-based", "details": "PDA, 20° C., hinokitiol in acetone", "method": "as §1"}, "Phytophtora capsici": {"system": "Phytophtora capsici", "assay": "Spiral gradient dilution method, inhibition of mycelial growth", "format": "cell-based", "details": "PDA, 20° C., hinokitiol in acetone", "method": "as §1"}, "Verticillium dahliae": {"system": "Verticillium dahliae", "assay": "Spiral gradient dilution method, inhibition of mycelial growth", "format": "cell-based", "details": "PDA, 20° C., hinokitiol in acetone", "method": "as §1"}, "Botrytis cinerea": {"system": "Botrytis cinerea", "assay": "Spiral gradient dilution method, inhibition of mycelial growth and spore germination", "format": "cell-based", "method": "as §1"}, "[1]": {"system": "Lactuca sativa (lettuce) seeds", "assay": "96-well seed germination inhibition screen", "format": "in vivo", "details": "single lettuce seed per well, 50 μL solution, 5× dilution series", "method": "Numerous natural compounds were screened for their ability to inhibit the germination of dicot (broadleaved weed) seeds. A single seed of Lactuca sativa (lettuce) was placed in each well of a 96-well plate followed by 50 μL of a solution of each compound in a stepwise (5×) dilution series from 25% to 0%. Germination was monitored daily. Based on this screening study, the threshold value for hinokitiol to inhibit germination of seeds was determined at 0.32 mg/L."}, "[2]": {"system": "spurge, white clover, annual bluegrass and crab grass", "assay": "Field study of herbicidal effect, % weed control", "format": "in vivo", "method": "A hinokitiol formulation containing 32.4% of hinokitiol by weight was tested in a field study. The formulation also contained dispersing agent, water and emulsifier. The two concentrations tested contained 5% and 0.5% hinokitiol (w/w), and the spraying volume was 100 gallons per acre. Three replicate 1-square-foot plots were sprayed with the appropriate solutions, and the % weed control in each plot was recorded at 3, 7, 14 and 20 days after treatment. The main weeds in this study were spurge, white clover, annual bluegrass and crab grass."}, "[3]": {"assay": "Analysis of hinokitiol residue on green beans after sun exposure", "format": "physicochemical, green bean", "details": "for [hinokitiol] in the HPLC injection solution: green bean leaves", "method": "The goal of this study was to know stability of hinokitiol on plant leaves, instead of vials, after sun exposure. The following procedure was used • 1. A 3.2% Hinokitiol formulation containing propylene glycol, nonphytotoxic ethoxylate fatty esters; butanol, EDTA, UV protection agent, 1% sodium hydroxide and water for a total of 100% was used. The total weight of each formulation was 20 grams. • 2. Spraying solution: 10 mL of 100-fold dilution of the above formulation. • 3. Green bean plants: 6 plants with 10-15 leaves. • 4. Two plants were evenly sprayed 10 mL solution. • 5. Three plants was stored in dark incubator (25° C.), another three plants was put on the parking lot with full sun exposure (28˜35° C.). • 6. After 6 h, leaves were cut and punched into the same size discs (Ø21 mm). Discs from sun-exposed green bean and darkness green bean were 118 and 129, respectively. • 7. Discs were ground in a mortar and transferred into a separation funnel. The mortar and pestle were sequentially washed with 2 N HCl and ethyl acetate. The hinokitiol was extracted three times (3×50 mL) by ethyl acetate under 2N HCl (100 mL). The organic phase was dried by anhydrous sodium sulfate. After filtration and evaporation, the organic phase gave out a residue. The residue was dissolved by ethanol (1.5 mL). This solution was directly used for HPLC analysis. Injection volume was 10 μL.\n• Darkness: leaf disc 129 • Sun exposure: leaf disc 118 • Darkness: Peak area (AU): 50463 • Sun exposure: Peak Area (AU); 13197 • Standard line: y=66.367X-52.019 (R^2=0.9999, X=μg/ml of hinokitiol standard solution, 2 μL injection volume; y=peak area)\n• [hinokitiol] from darkness=152 μg/mL*1.5 mL/129 Disc=1.77 μg/Disc • [hinokitiol] from sun exposure=40 μg/mL*1.5 mL/118 Disc =0.51 μg/Disc\n• [hinokitiol] from sun exposure/[hinokitiol] from darkness=0.51/1.77=0.29"}, "Botrytis cinerea (BOT)": {"system": "Botrytis cinerea (BOT)", "assay": "Spiral plating method, growth inhibition", "format": "cell-based", "details": "B. cinerea", "method": "(§2) The spiral plating method was used to deposit the fungicides on PDA and TSA plates with exponential logarithmic decrease of product concentration from the centre to the edge of the plate. The plates were left standing for four hours and inoculated with the fungus and bacteria. There were four repetitions of the same microorganism done per plate and there was one replica of each plate.\n(§3) The plates were cultured for 3 days before measurements of growth were taken. The ‘distance of inhibition’ indicates the length of the zone with no growth, measured from center edge of the agar, the ‘colony width ratio’ indicates the ratio of the width of growth measured at the zero concentration and width at the highest concentration with growth."}, "[4]": {"system": "Erwinia carotovora (ERWC)", "assay": "Spiral plating method, growth inhibition", "format": "cell-based", "details": "E. carotovora; average distance of inhibition / 28 mm × 100", "method": "as §2, §3"}, "Fusarium sp (FUSM)": {"system": "Fusarium sp (FUSM)", "assay": "Spiral plating method, growth inhibition", "format": "cell-based", "details": "average distance of inhibition / 28 mm × 100", "method": "as §2, §3"}, "[5]": {"system": "Monilinia fructicola (MON)", "assay": "Spiral plating method, growth inhibition", "format": "cell-based", "details": "M. fructicola; average distance of inhibition / 28 mm × 100", "method": "as §2, §3"}, "[6]": {"system": "Pseudomonas viridilivida (PSVI)", "assay": "Spiral plating method, growth inhibition", "format": "cell-based", "details": "P. viridilivida", "method": "as §2, §3"}, "[7]": {"system": "Xanthomonas campestris (X-CAM)", "assay": "Spiral plating method, growth inhibition", "format": "cell-based", "details": "average distance of inhibition / 28 mm × 100", "method": "as §2, §3"}}}
{"smiles": "CC(C)c1cccc(=O)c(O)c1", "note": "[Hinokitiol, 4-isopropyl tropolone]", "values": [{"measurement": "EC50", "setting": "Colletotrichum acutatum", "result": 12, "unit": "µg/mL"}, {"measurement": "EC50", "setting": "Microphomina sp.", "result": 11, "unit": "µg/mL"}, {"measurement": "EC50", "setting": "Phytophtora capsici", "result": 12, "unit": "µg/mL"}, {"measurement": "EC50", "setting": "Verticillium dahliae", "result": 11, "unit": "µg/mL"}, {"measurement": "inhibition in spore germination", "setting": "Botrytis cinerea; B. cinerea, hinokitiol at concentrations 5-0.05 mg/mL, light microscope", "result": 100, "unit": "%"}, {"measurement": "EC50", "setting": "Botrytis cinerea; Botrytis cinerea, PDA, 20° C., hinokitiol in acetone", "result": 31, "unit": "µg/mL"}, {"measurement": "threshold value to inhibit germination of seeds", "setting": "[1]", "result": 0.32, "unit": "mg/L"}, {"measurement": "% weed control", "setting": "[2]; 0.5% hinokitiol (w/w), 3 DAYS", "result": 3.3, "unit": "%"}, {"measurement": "% weed control", "setting": "[2]; 0.5% hinokitiol (w/w), 7 DAYS", "result": 3.7, "unit": "%"}, {"measurement": "% weed control", "setting": "[2]; 0.5% hinokitiol (w/w), 14 DAYS", "result": 1.7, "unit": "%"}, {"measurement": "% weed control", "setting": "[2]; 0.5% hinokitiol (w/w), 20 DAYS", "result": 3.0, "unit": "%"}, {"measurement": "% weed control", "setting": "[2]; 5.0% hinokitiol (w/w), 7 DAYS", "result": 90.3, "unit": "%"}, {"measurement": "% weed control", "setting": "[2]; 5.0% hinokitiol (w/w), 14 DAYS", "result": 88.3, "unit": "%"}, {"measurement": "% weed control", "setting": "[2]; 5.0% hinokitiol (w/w), 20 DAYS", "result": 83.7, "unit": "%"}, {"measurement": "% weed control", "setting": "[2]; 5.0% hinokitiol (w/w), 100 gallons per acre, 3 DAYS", "result": 86.7, "unit": "%"}, {"measurement": "weeds controlled", "setting": "[2]; formulation containing 5% (w/w) hinokitiol, one week after spraying", "result": "more than 90%"}, {"measurement": "herbicidal effect on weeds", "setting": "[2]; same solution at 10× lower concentration", "result": "negligible effect"}, {"measurement": "Relative stability: [hinokitiol] from sun exposure/[hinokitiol] from darkness", "setting": "[3]; 6 h", "result": 0.29}, {"measurement": "hinokitiol concentration on each disc of green beans", "setting": "[3]; 6 h darkness, 25° C.", "result": 1.77, "unit": "μg/Disc"}, {"measurement": "hinokitiol concentration on each disc of green beans", "setting": "[3]; 6 h sun exposure, 28-35° C.", "result": 0.51, "unit": "μg/Disc"}, {"measurement": "hinokitiol concentration per unit area (Disc) relative to that stored in the darkness at 25° C.", "setting": "[3]; after 6 h sun exposure at 28-35° C.", "result": 29, "unit": "%"}, {"measurement": "[hinokitiol] in the HPLC injection solution", "setting": "[3]; 6 h darkness, 25° C.", "result": 152, "unit": "µg/mL"}, {"measurement": "[hinokitiol] in the HPLC injection solution", "setting": "[3]; 6 h sun exposure, 28-35° C.", "result": 40, "unit": "µg/mL"}, {"measurement": "time the residue on the plant would last", "setting": "[3]; green bean plants", "result": "at least one day"}, {"measurement": "inhibition of growth", "setting": "Botrytis cinerea (BOT)", "result": "did not inhibit"}, {"measurement": "% inhibition of growth", "setting": "[4]", "result": 62, "unit": "%"}, {"measurement": "% inhibition of growth", "setting": "Fusarium sp (FUSM)", "result": 32, "unit": "%"}, {"measurement": "% inhibition of growth", "setting": "[5]", "result": 48, "unit": "%"}, {"measurement": "inhibition of growth", "setting": "[6]", "result": "did not inhibit"}, {"measurement": "% inhibition of growth", "setting": "[7]", "result": 83, "unit": "%"}]}
